{"source": "patent US20030040510A1", "about": "“Selective estrogen receptor modulators in combination with estrogens” (Endorecherche, Inc., priority 2000, published 2003)", "key": {"[1]": {"tested_on": "OVX rats having established osteopenia", "assay": "Treatment of OVX rats having established osteopenia, 26 weeks (Example 5B): BMD, total body fat", "type": "in vivo, Sprague-Dawley rats", "details": "treatment started 10 weeks after OVX, 26 weeks daily", "experimental": "(§1) Height to nine month-old female Sprague-Dawley rats (Crl:CD(SD)Br) (Charles River Laboratory, St-Constant, Canada) were used in this experiment. The animals were acclimatized to the environmental conditions (temperature: 22±3° C.; humidity: 50±20%; 12-h light-12-h dark cycles, lights on at 07:15 h) for at least 1 week prior to the ovariectomy. Animals were bilaterally ovariectomized (OVX) under isoflurane anesthesia. Twenty animals were kept intact as control. The animals were housed individually and were allowed free access to tap water and a pelleted certified rodent feed (Lab Diet 5002, Ralston Purina, St-Louis, Mo.). Experiments were conducted in an animal facility approved by the Canadian Council on Animal Care (CCAC) and the Association for Assessment and Accreditation of Laboratory Animal Care (AAALAC) in accordance with the CCAC Guide for Care and Use of Experimental Animals.\nTreatments were initiated 10 weeks after the ovariectomy and were performed once daily during 26 weeks. Animals not receiving a test article were treated with the appropriate vehicle alone during the same period.\nPrior to the OVX, prior to the first day treatment (10 weeks after OVX) and after 26 weeks of treatment, individual rats under Isoflurane anesthesia had their whole body skeleton, lumbar spine and right femur scanned using dual energy x-ray absorptiometry (DEXA; QDR 4500A, Hologic, Waltham, Mass.) and a Regional High Resolution Scan software. The bone mineral density (BMD) of the lumbar spine (vertebrae L2 to L4), femur and the total body composition (fat percentage) were determined."}, "[2]": {"tested_on": "ovariectomized female rats", "assay": "Prevention of bone loss, body fat, serum cholesterol and ALP, 26-week treatment of OVX rats (Example 5A, experiment 2)", "type": "in vivo, Sprague-Dawley rats", "details": "OVX rats, 26 weeks", "experimental": "as §1, with “Ten” for “Height”, “twelve week-old” for “nine month-old”, “Canada) weighing approximately 220-270 g at start of treatment” for “Canada)”, “used.” for “used in this experiment.”, “before starting” for “prior to”, “experiments.” for “ovariectomy. Animals were bilaterally ovariectomized (OVX) under isoflurane anesthesia. Twenty animals were kept intact as control.”\nOn day 1 of the study, the animals of the appropriate groups were bilaterally OVX under isoflurane anesthesia. Tested compounds were administered as suspension in 0.4% methylcellulose by oral gavage. Treatments were initiated on day 2 of the study and were performed once daily during 26 weeks. In both experiments, animals not receiving a test article were treated with the appropriate vehicle alone during the same period.\n(§2) After 3 months (experiment 1) or 26 weeks (experiment 2) of treatment, individual rats under Isoflurane anesthesia had their whole body skeleton and lumbar spine scanned using dual energy x-ray absorptiometry (DEXA; QDR 4500A, Hologic, Waltham, Mass.) and a Regional High Resolution Scan software. The bone mineral density (BMD) of the lumbar spine (vertebrae L2 to L4) and the total body composition (fat percentage) were determined.\n(§3) After 3 months (experiment 1) or 26 weeks (experiment 2) of treatment, blood samples were collected at the jugular vein from overnight fasted animals (under Isoflurane anesthesia). Samples were processed for serum preparation and frozen at −80° C. until assay. Serum cholesterol levels and alkaline phospatase activity (ALP) were determined using the Boehringer Mannheim Diagnostic Hitachi 911 Analyzer (Boehringer Mannheim Diagnostic Laboratory Systems)."}, "[3]": {"tested_on": "ovariectomized female rats", "assay": "Prevention of bone loss, body fat, serum cholesterol and ALP, 3-month treatment of OVX rats (Example 5A, experiment 1)", "type": "in vivo, Sprague-Dawley rats", "details": "OVX rats, 3 months", "experimental": "as §1, with “Ten” for “Height”, “twelve week-old” for “nine month-old”, “Canada) weighing approximately 220-270 g at start of treatment” for “Canada)”, “used.” for “used in this experiment.”, “before starting” for “prior to”, “experiments.” for “ovariectomy. Animals were bilaterally ovariectomized (OVX) under isoflurane anesthesia. Twenty animals were kept intact as control.”\nOn day 1 of the study, the animals of the appropriate groups were bilaterally ovariectomized (OVX) under isoflurane anesthesia. […] Treatments were initiated on day 2 of the study and were performed once daily during 3 months.\nas §2, §3"}, "MCF-7 cells": {"tested_on": "MCF-7 cells", "assay": "Proliferation of human breast cancer MCF-7 cells (DNA content)", "type": "cell-based", "details": "for IC50: Homo sapiens, read-out: Inhibition of 1nM E2 stimulation of DNA by tested compounds IC50", "experimental": "The MCF-7 human breast adenocarcinoma cell line was derived from the pleural effusion of a patient. MCF-7 cells were used between passages 148 and 165 and subcultured weekly\nCells in their late logarithmic growth phase were harvested with 0.1% pancreatin (Sigma) and resuspended in the appropriate medium containing 50 ng bovine insulin/ml and 5% (v/v) FBS treated twice with dextran-coated charcoal to remove endogenous steroids. Cells were plated in 24-well Falcon plastic culture plates (2 cm^2/well) at the indicated density and allowed to adhere to the surface of the plates for 72 h. Thereafter, medium was replaced with fresh medium containing the indicated concentrations of compounds diluted from 1000×stock solutions in 99% redistilled ethanol in the presence or absence of E2. Control cells received only the ethanolic vehicle (0.1% EtOH,v/v). Cells were incubated for the specified time intervals with medium changes at 2-or 3-day intervals. Cell number was determined by measurement of DNA content.\nDose-response curves as well IC50 values were calculated using a weighted iterative nonlinear least-squares regression. All results are expressed as means±SEM."}, "Solid state stability": {"assay": "Solid state stability", "type": "physicochemical", "source_text": "In administering either EM-800 or EM-1538, it is believed to result in the same active compound in vivo."}, "endometrial epithelium": {"tested_on": "endometrial epithelium", "assay": "Thickness of uterine (endometrial) epithelial cells in the mice of Example 8", "type": "in vivo, nude mice", "details": "for Endometrial epithelium thickness: 161 days", "source_text": "The 17 groups included two control groups (OVX and OVX+Estrone), seven groups supplemented with an estrone implant and treated with an antiestrogen and eight other groups that received an antiestrogen alone. The estrone implants were then removed from the animals in the ovariectomized control group (OVX) and in groups that were to receive the antiestrogen alone. […] Tamoxifen was purchased from […], Israel) while toremifene citrate was purchased from Orion (Espoo, Finland). […] Animals in both control groups received 0.2 ml of the vehicle alone. The antiestrogen suspensions at the appropriate concentration were prepared each month, stored at 4° C. and used under constant agitation. Powder stock were hermetically stored at 4° C. […] After 161 days of treatment, the remaining animals were anesthetized with isoflurane and killed by exsanguination. […] The uteri were prepared to evaluate endometrial thickness by image analysis performed with Image Pro-Plus (Media Cybernetics, Maryland, USA). […] Hematoxylin- and eosin-stained sections of mice uteri were analysed. […] Mean epithelial cell height was measured in all animals of each group."}}, "note": "Read-outs that look alike come from different tables or passages of the source. Marks after values point to notes of the source that are not given here."}
{"molecule": "CC1=C(c2ccc(O)cc2)[C@H](c2ccc(OCCN3CCCCC3)cc2)Oc2cc(O)ccc21.Cl", "note": "[EM-652.HCl, (S)-(+)-7-hydroxy-3-(4′-hydroxyphenyl)-4-methyl-2-(4″-(2′″-piperidinoethoxy)phenyl)-2H-1-benzopyran hydrochloride]", "values": [{"measurement": "Femoral BMD", "setting": "[1]", "value": "completely prevented the further decrease"}, {"measurement": "Lumbar spine BMD", "setting": "[1]", "value": "completely prevented the further decrease"}, {"measurement": "Total body fat", "setting": "[1]", "value": "prevented the 17% increase"}, {"measurement": "Serum ALP", "setting": "[2]", "value": "78 ± 4", "unit": "IU"}, {"measurement": "Serum cholesterol", "setting": "[2]", "value": "0.98 ± 0.06", "unit": "mmol/L"}, {"measurement": "OVX-induced fat percentage increase", "setting": "[3]", "value": "completely prevented"}, {"measurement": "Serum ALP", "setting": "[3]", "value": "91 ± 6", "unit": "IU/L"}, {"measurement": "Serum cholesterol", "setting": "[3]", "value": "0.87 ± 0.04", "unit": "mmol/L"}, {"measurement": "IC50", "setting": "MCF-7 cells; MCF7, MCF-7, Experiment 2", "value": 205, "unit": "pM"}, {"measurement": "IC50", "setting": "MCF-7 cells; MCF7, MCF-7, Experiment 1", "value": 796, "unit": "pM"}, {"measurement": "Maximal stimulation of DNA by tested compounds", "setting": "MCF-7 cells; MCF-7, Experiment 1", "value": "N.S."}, {"measurement": "Stimulation of DNA by tested compounds", "setting": "MCF-7 cells; MCF-7, Experiment 2", "value": "N.S."}, {"measurement": "Solid state stability", "setting": "Solid state stability", "value": "good solid state stability"}, {"measurement": "Inhibition of the stimulatory effect of estrone on epithelial height", "setting": "endometrial epithelium; 50 μg daily oral + estrone", "value": 70, "unit": "%"}, {"measurement": "Height of uterine epithelial cells, of the OVX control group value", "setting": "endometrial epithelium; 200 μg daily, absence of estrone", "value": 114, "unit": "%"}, {"measurement": "Endometrial epithelium thickness", "setting": "endometrial epithelium; OVX + E1 + antiestrogen 50 μg daily", "value": "25.06^b ± 0.07 μm"}, {"measurement": "Endometrial epithelium thickness", "setting": "endometrial epithelium; OVX + antiestrogen 200 μg daily, no estrone", "value": "20.79 ± 0.10", "unit": "μm"}]}
